Columns and labels:
NB12 (Neuroblastoma) [1] = test: Bliss excess, mean over the matrix (fraction); higher = more synergy
Procedure, shortened: (§1)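 Cell lines in DMEM/F12 or RPMI with 10% FBS were plated in 1536-well plates, held 24 hours at 37°C, 5% CO2, then given two-drug dose matrices for 72 hours (DMSO typically 0.2%). Viability was read by CellTiter-Glo 2.0 luminescence and scaled as inhibition from 0 (vehicle wells) to 1 (blank wells). Combination Emax is the second-highest inhibition in the matrix; Bliss excess is observed combination effect minus expected EA + EB − EA·EB, EA and EB being single-agent effects.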

SK-MEL-2 (Melanoma) [2] = test: as above
Procedure, shortened: as §1

[3] = system: CAL-62 (Thyroid Gland Carcinoma); test: combination Emax (second highest fraction inhibited in the dose matrix, 72 h); higher = more inhibition; extreme values may be limits of the assay
Procedure, shortened: as §1

[4] = system: OAW-42 (Ovarian Carcinoma); test: as above
Procedure, shortened: as §1

NB12 (Neuroblastoma) [5] = test: as above
Procedure, shortened: as §1

[6] = system: LB996-RCC (Kidney Carcinoma); test: as above
Procedure, shortened: as §1

WM793B (Melanoma) = test: as above
Procedure, shortened: as §1

[7] = system: NCI-H23 (Lung Adenocarcinoma); test: as above
Procedure, shortened: as §1

SK-MEL-2 (Melanoma) [8] = test: as above
Procedure, shortened: as §1

[9] = system: LXF-289 (Lung Adenocarcinoma); test: as above
Procedure, shortened: as §1
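Wherever Bliss excess, mean over the matrix is given: after 72 h of two-drug dosing.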

Row | Structure (SMILES) | Bliss excess (NB12 (Neuroblastoma) [1]) | Bliss excess (SK-MEL-2 (Melanoma) [2]) | combination Emax [3] | combination Emax [4] | combination Emax (NB12 (Neuroblastoma) [5]) | combination Emax [6] | combination Emax (WM793B (Melanoma)) | combination Emax [7] | combination Emax (SK-MEL-2 (Melanoma) [8]) | combination Emax [9]
1 | COc1nnc2ccc(N3CCC(c4ccc(OCCN5CCN(C)C(=O)[C@H]5C)cc4)CC3)nn12 [AZD5153] + Cc1c2c(nn1C)CSCc1cc(n(C)n1)CSc1cc(c3ccccc3c1)OCCCc1c(C(=O)O)n(C)c3c-2c(Cl)ccc13 [AZD5991] (first compound max 1 µM, 7x7, partner max 1 µM) | 0.0267 | -0.0198 | 0.795 | 0.615 | 0.942 | 0.491 | 0.688 | 0.997 | 0.984 | 0.903
2 | COc1nnc2ccc(N3CCC(c4ccc(OCCN5CCN(C)C(=O)[C@H]5C)cc4)CC3)nn12 [AZD5153] + C=CCn1c(=O)c2cnc(Nc3ccc(N4CCN(C)CC4)cc3)nc2n1-c1cccc(C(C)(C)O)n1 [AZD1775] (first compound max 1 µM, partner max 1 µM) | -0.0313 | -0.116 | 0.79 | 0.615 | 0.958 | 0.835 | 0.636 | 0.963 | 0.635 | 0.813
3 | COc1cc2ncnc(Nc3ccc(F)c(Cl)c3)c2cc1OCCCN1CCOCC1 [Gefitinib] + CC(C)n1c(=O)n(C)c2cnc3cc(F)c(-c4ccc(OCCCN5CCCCC5)nc4)cc3c21 [AZD1390] (first compound max 10 µM, 7x7, partner max 0.3 µM) | -0.0668 | -0.0348 | 0 | 0.107 | 0.139 | 0.391 | 0.142 | 0.107 | 0.169 | 0.0907
4 | CN(C)CCCOc1ccc(-c2ccc3ncc4c(c3c2)n(C2CCOCC2)c(=O)n4C)cn1 [AZD0156] + O=C(c1cc(Cc2n[nH]c(=O)c3ccccc23)ccc1F)N1CCN(C(=O)C2CC2)CC1 [Olaparib] (first compound max 3 µM, partner max 3 µM) | 0.0534 | -0.045 | 0.342 | 0.282 | 0.363 | 0.38 | 0.197 | 0.117 | 0.0599 | 0.4
5 | NC1(C(=O)N[C@@H](CCO)c2ccc(Cl)cc2)CCN(c2ncnc3[nH]ccc23)CC1 [Capivasertib] + COc1nnc2ccc(N3CCC(c4ccc(OCCN5CCN(C)C(=O)[C@H]5C)cc4)CC3)nn12 [AZD5153] (first compound max 10 µM, 7x7, partner max 1 µM) | 0.0031 | -0.0015 | 0.751 | 0.619 | 0.985 | 0.72 | 0.616 | 0.773 | 0.578 | 0.811
6 | Cn1cnc2c(F)c(Nc3ccc(Br)cc3Cl)c(C(=O)NOCCO)cc21 [Selumetinib] + C=CCn1c(=O)c2cnc(Nc3ccc(N4CCN(C)CC4)cc3)nc2n1-c1cccc(C(C)(C)O)n1 [AZD1775] (first compound max 10 µM, partner max 1 µM) | -0.0517 | 0.0533 | 0.607 | 0.513 | 0.674 | 0.717 | 0.534 | 0.915 | 0.831 | 0.514
7 | COc1nnc2ccc(N3CCC(c4ccc(OCCN5CCN(C)C(=O)[C@H]5C)cc4)CC3)nn12 [AZD5153] + C[C@@H]1COCCN1C2=NC(=NC(=C2)C3(CC3)[S@](=N)(=O)C)C4=C5C=CNC5=NC=C4 [AZD6738] (first compound max 1 µM, 7x7, partner max 10 µM) | 0.0067 | 0.0037 | 0.895 | 0.702 | 0.958 | 0.731 | 0.827 | 1 | 0.693 | 0.862
8 | NC1(C(=O)N[C@@H](CCO)c2ccc(Cl)cc2)CCN(c2ncnc3[nH]ccc23)CC1 [Capivasertib] + CC(=O)c1c(C)c2cnc(Nc3ccc(N4CCNCC4)cn3)nc2n(C2CCCC2)c1=O [Palbociclib] (first compound max 10 µM, 7x7, partner max 10 µM) | 0.0139 | -0.0408 | 0.422 | 0.548 | 0.399 | 0.781 | 0.548 | 0.512 | 0.0717 | 0.691
